One experiment has as its target T1, ATM (Homo sapiens, UniProt Q13315).
T1 construct: detecting phosphorylation of Chk2 in a human non-small cell lung cancer cell line NCI-H460 (ATCC company); host or cells: NCI-H460 human non-small cell lung cancer cells
Put plainly: ATM inhibition test (phosphorylation of Chk2 generated by ionizing radiation, AlphaScreen SureFire). The experiment is classed as cell-based. The settings on record: phosphorylated Chk2 in NCI-H460 cells, ionizing radiation 8Gy, 1 hour after test compound treatment; read-out: ATM inhibitory activity. The procedure, abridged:
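NCI-H460 cells, compound 1 h pre-treatment, 8Gy IR, further 1 h at 37° C in 5% CO2. Read-out: phospho-Chk2 via AlphaScreen SureFire. % inhibition relative to IR-induced signal window (irradiated vs non-irradiated drug-free wells).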
(In general: Bead proximity is the source of the signal in Alpha formats.)

Experiment [1] deals with human non-small cell lung cancer cell line NCI-H460. Put plainly: Cell proliferation inhibition test by sensitivity-enhancing to ionizing radiation (Cell Titer Glo). The experiment is classed as cell-based. Conditions: concentration in which SER became 2, NCI-H460 cells, ionizing radiation 2 Gy, cultured 120 hour. In a few lines: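 Cells seeded at 2×10^3 cells/mL in RPMI-1640 with 10% FBS; after 24 h, compound added (0.1% DMSO), and 30 min later half the plates irradiated at 2 Gy. After 120 hour at 37° C, viability by Cell Titer Glo luminescence; SER2 is the concentration giving SER of 2 by sigmoidal fit.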
In general terms: In ATP-based viability assays light output follows the ATP content of the culture.

T1 sequence (Q13315 whole entry): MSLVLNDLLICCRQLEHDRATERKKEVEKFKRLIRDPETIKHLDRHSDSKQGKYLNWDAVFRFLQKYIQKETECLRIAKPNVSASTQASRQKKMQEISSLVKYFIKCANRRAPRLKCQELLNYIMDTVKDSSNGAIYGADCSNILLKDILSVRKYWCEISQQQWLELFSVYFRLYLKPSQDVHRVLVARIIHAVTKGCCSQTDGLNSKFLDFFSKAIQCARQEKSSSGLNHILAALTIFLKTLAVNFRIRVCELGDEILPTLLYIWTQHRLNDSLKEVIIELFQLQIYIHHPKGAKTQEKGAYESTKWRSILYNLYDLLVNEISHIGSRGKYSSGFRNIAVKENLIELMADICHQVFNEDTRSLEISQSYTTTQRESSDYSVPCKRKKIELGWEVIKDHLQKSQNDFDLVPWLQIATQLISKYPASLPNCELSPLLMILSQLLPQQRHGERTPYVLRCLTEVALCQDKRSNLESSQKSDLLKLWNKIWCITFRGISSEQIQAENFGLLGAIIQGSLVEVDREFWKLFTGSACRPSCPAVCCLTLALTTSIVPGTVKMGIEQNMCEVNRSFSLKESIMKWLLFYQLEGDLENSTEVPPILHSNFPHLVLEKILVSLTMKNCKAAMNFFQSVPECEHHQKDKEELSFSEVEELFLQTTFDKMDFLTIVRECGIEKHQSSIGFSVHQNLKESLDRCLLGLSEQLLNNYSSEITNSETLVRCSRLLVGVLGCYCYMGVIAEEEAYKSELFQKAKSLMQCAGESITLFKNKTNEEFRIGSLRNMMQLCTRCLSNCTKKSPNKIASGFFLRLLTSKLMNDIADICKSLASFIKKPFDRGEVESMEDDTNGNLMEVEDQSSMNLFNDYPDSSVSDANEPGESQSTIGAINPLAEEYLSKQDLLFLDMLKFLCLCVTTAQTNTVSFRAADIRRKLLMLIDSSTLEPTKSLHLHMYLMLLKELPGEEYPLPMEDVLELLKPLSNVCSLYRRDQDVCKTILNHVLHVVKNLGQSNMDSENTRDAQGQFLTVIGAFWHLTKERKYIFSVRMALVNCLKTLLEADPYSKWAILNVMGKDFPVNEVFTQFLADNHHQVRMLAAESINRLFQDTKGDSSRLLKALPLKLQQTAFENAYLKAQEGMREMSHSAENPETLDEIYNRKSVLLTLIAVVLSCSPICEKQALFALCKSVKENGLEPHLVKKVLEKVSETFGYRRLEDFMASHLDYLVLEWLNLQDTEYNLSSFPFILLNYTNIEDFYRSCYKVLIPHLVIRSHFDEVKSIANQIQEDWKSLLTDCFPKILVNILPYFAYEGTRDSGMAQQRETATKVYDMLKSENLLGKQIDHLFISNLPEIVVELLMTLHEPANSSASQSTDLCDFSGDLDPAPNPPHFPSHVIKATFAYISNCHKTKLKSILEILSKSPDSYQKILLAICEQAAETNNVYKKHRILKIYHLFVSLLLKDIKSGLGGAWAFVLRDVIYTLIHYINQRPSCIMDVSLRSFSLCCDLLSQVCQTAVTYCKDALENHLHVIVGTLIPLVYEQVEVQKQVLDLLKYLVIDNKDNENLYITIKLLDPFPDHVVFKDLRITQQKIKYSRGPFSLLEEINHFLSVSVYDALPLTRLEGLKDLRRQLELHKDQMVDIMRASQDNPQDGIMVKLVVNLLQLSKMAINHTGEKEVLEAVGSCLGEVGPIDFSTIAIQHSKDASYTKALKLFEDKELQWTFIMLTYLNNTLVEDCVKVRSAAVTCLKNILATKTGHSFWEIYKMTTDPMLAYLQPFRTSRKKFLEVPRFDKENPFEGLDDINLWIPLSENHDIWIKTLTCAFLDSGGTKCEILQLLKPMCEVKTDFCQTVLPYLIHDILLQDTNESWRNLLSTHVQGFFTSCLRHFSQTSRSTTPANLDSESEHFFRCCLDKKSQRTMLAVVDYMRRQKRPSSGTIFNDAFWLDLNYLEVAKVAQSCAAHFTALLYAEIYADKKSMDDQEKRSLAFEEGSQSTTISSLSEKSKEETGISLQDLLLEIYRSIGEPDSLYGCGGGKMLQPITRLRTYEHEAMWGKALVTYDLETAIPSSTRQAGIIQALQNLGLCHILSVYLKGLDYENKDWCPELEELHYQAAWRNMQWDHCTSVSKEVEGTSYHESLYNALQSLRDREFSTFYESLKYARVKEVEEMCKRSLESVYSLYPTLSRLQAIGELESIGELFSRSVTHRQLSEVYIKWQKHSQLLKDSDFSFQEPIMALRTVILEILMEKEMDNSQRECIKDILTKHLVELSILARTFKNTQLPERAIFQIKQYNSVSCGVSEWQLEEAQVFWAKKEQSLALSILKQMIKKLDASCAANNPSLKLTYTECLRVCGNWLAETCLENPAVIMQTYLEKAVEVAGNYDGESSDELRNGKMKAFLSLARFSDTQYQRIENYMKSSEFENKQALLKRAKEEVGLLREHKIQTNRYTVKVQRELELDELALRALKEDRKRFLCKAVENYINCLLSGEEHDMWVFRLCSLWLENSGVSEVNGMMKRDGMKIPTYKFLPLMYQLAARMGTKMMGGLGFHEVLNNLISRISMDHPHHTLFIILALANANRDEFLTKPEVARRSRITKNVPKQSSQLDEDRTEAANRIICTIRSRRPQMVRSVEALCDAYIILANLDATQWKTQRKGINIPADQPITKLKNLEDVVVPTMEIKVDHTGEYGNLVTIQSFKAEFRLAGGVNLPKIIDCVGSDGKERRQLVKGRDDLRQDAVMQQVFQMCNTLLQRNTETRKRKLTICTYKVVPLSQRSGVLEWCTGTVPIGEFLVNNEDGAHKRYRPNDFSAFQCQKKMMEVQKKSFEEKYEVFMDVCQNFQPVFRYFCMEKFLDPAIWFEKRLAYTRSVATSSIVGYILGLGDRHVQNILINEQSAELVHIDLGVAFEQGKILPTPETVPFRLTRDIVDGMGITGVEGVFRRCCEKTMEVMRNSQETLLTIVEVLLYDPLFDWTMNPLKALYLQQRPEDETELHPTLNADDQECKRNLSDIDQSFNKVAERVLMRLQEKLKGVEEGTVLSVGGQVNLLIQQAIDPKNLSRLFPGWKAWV

For `Cc1ccnc(CNc2ccc3c(c2)Cc2cccc(-c4cc(N5CCOCC5)cc(=O)[nH]4)c2O3)c1` [Example 2-2-40, 6-(7-(((4-Methylpyridin-2-yl)methyl)amino)-9H-xanthen-4-yl)-4-morpholino pyridin-2(1H)-one], on ATM, the IC50 was less than 100 nM. Besides, the SER2 (concentration at which the radiation sensitivity-enhancement ratio reaches 2) in experiment [1] (Homo sapiens, NCI-H460, 120 h) was in the range of 100 to 500 nM.

Regarding `Cc1ccnc(C(C)Nc2ccc3c(c2)Sc2cccc(-c4cc(N5CCOCC5)cc(=O)[nH]4)c2S3)c1` (stereo not drawn) [Example 1-12-29], the IC50 on ATM was less than 100 nM. In addition, in experiment [1] (Homo sapiens, NCI-H460, 120 h), the SER2 (concentration at which the radiation sensitivity-enhancement ratio reaches 2) is less than 100 nM.

As to `COc1cncc(CNc2ccc3c(c2)Cc2cccc(-c4cc(N5CCOCC5)cc(=O)[nH]4)c2O3)n1` [Example 2-13-9, 6-(7-(((6-Methoxypyrazin-2-yl)methyl)amino)-9H-xanthen-4-yl)-4-morpholino pyridin-2(1H)-one], at ATM, the IC50 was less than 100 nM. The SER2 (concentration at which the radiation sensitivity-enhancement ratio reaches 2) in experiment [1] (Homo sapiens, NCI-H460, 120 h) lay within 500 to 2000 nM.

Consider `CNc1ncc(CNc2ccc3c(c2)Cc2cccc(-c4cc(N5CCOCC5)cc(=O)[nH]4)c2O3)cn1` [Example 2-2-16, 6-(7-(((2-(Methylamino)pyrimidin-5-yl)methyl)amino)-9H-xanthen-4-yl)-4-morpholino pyridin-2(1H)-one], for which the IC50 at ATM lay in the range of 100 to 500 nM. Besides, in experiment [1] (Homo sapiens, NCI-H460, 120 h), the SER2 (concentration at which the radiation sensitivity-enhancement ratio reaches 2) was 100 to 500 nM.

With `O=c1cc(N2CCOCC2)cc(-c2cccc3c2Oc2ccc(NCc4cc(-n5cccc5)ccn4)cc2C3)[nH]1` [Example 2-2-71, 6-(7-(((4-(1H-Pyrrol-1-yl)pyridin-2-yl)methyl)amino)-9H-xanthen-4-yl)-4-morpholino pyridin-2(1H)-one], the IC50 at ATM is less than 100 nM. Also, the SER2 (concentration at which the radiation sensitivity-enhancement ratio reaches 2) in experiment [1] (Homo sapiens, NCI-H460, 120 h) was 100 to 500 nM.

`COc1cnc(C(C)Nc2ccc3c(c2)Cc2cccc(-c4cc(N5CCOCC5)cc(=O)[nH]4)c2O3)cn1` (stereo not drawn) [Example 2-14-51, 6-(7-((1-(5-Methoxypyrazin-2-yl)ethyl)amino)-9H-xanthen-4-yl)-4-morpholino pyridin-2(1H)-one]: the IC50 at ATM is less than 100 nM. For the same compound, the SER2 (concentration at which the radiation sensitivity-enhancement ratio reaches 2) in experiment [1] (Homo sapiens, NCI-H460, 120 h) fell in the range of 100 to 500 nM.

Turning to `CC(Nc1ccc2c(c1)Sc1cccc(-c3cc(N4CCOCC4)cc(=O)[nH]3)c1S2)c1ncc(CO)cn1` (single isomer, unassigned) [Example 1-12-142-1, 6-(7-((1-(5-(hydroxymethyl)pyrimidin-2-yl)ethyl)amino)thianthren-1-yl)-4-morpholinopyridin-2(1H)-one], the IC50 at ATM is less than 100 nM. In addition, in experiment [1] (Homo sapiens, NCI-H460, 120 h), the SER2 (concentration at which the radiation sensitivity-enhancement ratio reaches 2) is 100 to 500 nM.

As for `COc1ccnc(CNc2ccc3c(c2)Cc2ccnc(-c4cc(N5CCOCC5)cc(=O)[nH]4)c2O3)c1` [Example 2-41-4, 6-(7-(((4-Methoxypyridin-2-yl)methyl)amino)-5H-chromeno[2,3-c]pyridin-1-yl)-4-morpholino pyridin-2 (1H)-one], the IC50 on ATM was less than 100 nM. In addition, the SER2 (concentration at which the radiation sensitivity-enhancement ratio reaches 2) in experiment [1] (Homo sapiens, NCI-H460, 120 h) lay in the range of 100 to 500 nM.

As for `Cc1ccc(C(Nc2ccc3c(c2)Sc2cccc(-c4cc(N5CCOCC5)cc(=O)[nH]4)c2S3)C2CC(N(C)C)C2)nc1` (single isomer, unassigned) [Example 1-50-8, 6-(7-(((3-(Dimethylamino)cyclobutyl)(5-methylpyridin-2-yl)methyl)amino)thianthren-1-yl)-4-morpholino pyridin-2(1H)-one], on ATM, the IC50 was less than 100 nM. Also, in experiment [1] (Homo sapiens, NCI-H460, 120 h), the SER2 (concentration at which the radiation sensitivity-enhancement ratio reaches 2) is less than 100 nM.

For the compound `CCN(C)CCC(Nc1ccc2c(c1)Sc1cccc(-c3cc(N4CCOCC4)cc(=O)[nH]3)c1S2)c1cnc(C)cn1` (stereo not drawn) [Example 1-23-2, 6-(7-((3-(Ethyl(methyl)amino)-1-(5-methylpyrazin-2-yl)propyl)amino)thianthren-1-yl)-4-morpholinopyridin-2(1H)-one], the IC50 at ATM is less than 100 nM. The SER2 (concentration at which the radiation sensitivity-enhancement ratio reaches 2) in experiment [1] (Homo sapiens, NCI-H460, 120 h) lay in the range of 100 to 500 nM.

Consider `Cc1ccc(C(Nc2ccc3c(c2)Sc2cccc(-c4cc(N5CCOCC5)cc(=O)[nH]4)c2S3)C2CCN(C)CC2)nc1` (single isomer, unassigned) [Example 1-51-2], for which the IC50 on ATM was less than 100 nM. Also, the SER2 (concentration at which the radiation sensitivity-enhancement ratio reaches 2) in experiment [1] was 100 to 500 nM.

In the case of `COc1cnc(CNc2ccc3c(c2)Cc2cccc(-c4cc(N5CCOCC5)cc(=O)[nH]4)c2O3)cn1` [Example 2-2-36, 6-(7-(((5-Methoxypyrazin-2-yl)methyl)amino)-9H-xanthen-4-yl)-4-morpholino pyridin-2(1H)-one], the IC50 on ATM fell in the range of 100 to 500 nM. The SER2 (concentration at which the radiation sensitivity-enhancement ratio reaches 2) in experiment [1] (Homo sapiens, NCI-H460, 120 h) was in the range of 500 to 2000 nM.

`CCC(CN1CCOCC1)Nc1ccc2c(c1)Sc1cccc(-c3cc(N4CCOCC4)cc(=O)[nH]3)c1S2` (stereo not drawn) [Example 1-13-1, 4-Morpholino-6-(7-((1-morpholinobutan-2-yl)amino)thianthren-1-yl)pyridin-2(1H)-one]: at ATM, the IC50 was less than 100 nM. The SER2 (concentration at which the radiation sensitivity-enhancement ratio reaches 2) in experiment [1] (Homo sapiens, NCI-H460, 120 h) lay within 100 to 500 nM.

For `O=c1cc(N2CCOCC2)cc(-c2cccc3c2Oc2ccc(NCc4ccnc(F)c4)cc2C3)[nH]1` [Example 2-21-2, 6-(7-(((2-Fluoropyridin-4-yl)methyl)amino)-9H-xanthen-4-yl)-4-morpholinopyridin-2 (1H)-one], the IC50 at ATM was less than 100 nM. Moreover, in experiment [1] (Homo sapiens, NCI-H460, 120 h), the SER2 (concentration at which the radiation sensitivity-enhancement ratio reaches 2) is 100 to 500 nM.

Turning to `Cc1cccc(C(C)Nc2ccc3c(c2)Sc2cccc(-c4cc(N5CCOCC5)cc(=O)[nH]4)c2S3)n1` (single isomer, unassigned) [Example 1-12-136-1, 6-(7-((1-(6-methylpyridin-2-yl)ethyl)amino)thianthren-1-yl)-4-morpholinopyridin-2(1H)-one], the IC50 at ATM is less than 100 nM. Further, in experiment [1] (Homo sapiens, NCI-H460, 120 h), the SER2 (concentration at which the radiation sensitivity-enhancement ratio reaches 2) is less than 100 nM.

On to `COCC(CN1CCOCC1)Nc1ccc2c(c1)Sc1cccc(-c3cc(N4CCOCC4)cc(=O)[nH]3)c1S2` (single isomer, unassigned) [Example 1-17-1-2, 6-(7-((1-methoxy-3-morpholinopropan-2-yl)amino)thianthren-1-yl)-4-morpholinopyridin-2(1H)-one], for which the IC50 on ATM was less than 100 nM. In addition, the SER2 (concentration at which the radiation sensitivity-enhancement ratio reaches 2) in experiment [1] (Homo sapiens, NCI-H460, 120 h) is less than 100 nM.

On to `Cc1cnc(C(CCN2CCOCC2)Nc2ccc3c(c2)Sc2cccc(-c4cc(N5CCOCC5)cc(=O)[nH]4)c2S3)cn1` (stereo not drawn) [Example 1-50-1, 6-(7-((1-(5-methylpyrazin-2-yl)-3-morpholinopropyl)amino)thianthren-1-yl)-4-morpholinopyridin-2(1H)-one], for which the IC50 at ATM is less than 100 nM. In addition, the SER2 (concentration at which the radiation sensitivity-enhancement ratio reaches 2) in experiment [1] (Homo sapiens, NCI-H460, 120 h) is less than 100 nM.

With `CC1COCCN1CCNc1ccc2c(c1)Sc1cccc(-c3cc(N4CCOCC4)cc(=O)[nH]3)c1S2` (stereo not drawn) [Example 1-16-7, 6-(7-((2-(3-Methylmorpholino)ethyl)amino)thianthren-1-yl)-4-morpholinopyridin-2(1H)-one], the IC50 on ATM was less than 100 nM. Further, in experiment [1] (Homo sapiens), the SER2 (concentration at which the radiation sensitivity-enhancement ratio reaches 2) lay within 100 to 500 nM.

In the case of `COc1cncc(C(C)Nc2ccc3c(c2)Sc2cccc(-c4cc(N5CCOCC5)cc(=O)[nH]4)c2S3)c1` (stereo not drawn) [Example 1-12-9, 6-(7-((1-(5-Methoxypyridin-3-yl)ethyl)amino)thianthren-1-yl)-4-morpholino pyridin-2(1H)-one], the IC50 on ATM is less than 100 nM. Moreover, the SER2 (concentration at which the radiation sensitivity-enhancement ratio reaches 2) in experiment [1] (Homo sapiens, NCI-H460, 120 h) lay in the range of 100 to 500 nM.

For `CC(Nc1ccc2c(c1)Sc1cccc(-c3cc(N4CCOCC4)cc(=O)[nH]3)c1S2)c1cc(C#N)ncn1` (single isomer, unassigned) [Example 1-12-146-1, 6-(1-((6-(4-morpholino-6-oxo-1,6-dihydropyridin-2-yl)thianthren-2-yl)amino)ethyl)pyrimidine-4-carbonitrile], on ATM, the IC50 is less than 100 nM. The SER2 (concentration at which the radiation sensitivity-enhancement ratio reaches 2) in experiment [1] (Homo sapiens, NCI-H460, 120 h) was 100 to 500 nM.

In the case of `COc1ccc(CNc2ccc3c(c2)Cc2cccc(-c4cc(N5CCOCC5)cc(=O)[nH]4)c2O3)cn1` [Example 2-2-1, 6-(7-(((6-methoxypyridin-3-yl)methyl)amino)-9H-xanthen-4-yl)-4-morpholinopyridin-2(1H)-one], on ATM, the IC50 is less than 100 nM. Further, the SER2 (concentration at which the radiation sensitivity-enhancement ratio reaches 2) in experiment [1] (Homo sapiens, NCI-H460, 120 h) lay in the range of 100 to 500 nM.

For `Cc1cc(C(C)Nc2ccc3c(c2)Sc2cccc(-c4cc(N5CCOCC5)cc(=O)[nH]4)c2S3)ncn1` (stereo not drawn) [Example 1-12-75, 6-(7-((1-(6-Methylpyrimidin-4-yl)ethyl)amino)thianthren-1-yl)-4-morpholino pyridin-2 (1H)-one], on ATM, the IC50 was less than 100 nM. The SER2 (concentration at which the radiation sensitivity-enhancement ratio reaches 2) in experiment [1] (Homo sapiens, NCI-H460, 120 h) lay within 100 to 500 nM.

Take `O=c1cc(N2CCOCC2)cc(-c2cccc3c2Sc2ccc(NC(CF)CN4CCOCC4)cc2S3)[nH]1` (single isomer, unassigned) [Example 1-41-1-2, 6-(7-((1-fluoro-3-morpholinopropan-2-yl)amino)thianthren-1-yl)-4-morpholinopyridin-2(1H)-one]: the IC50 at ATM is less than 100 nM. In experiment [1] (Homo sapiens, NCI-H460, 120 h), the SER2 (concentration at which the radiation sensitivity-enhancement ratio reaches 2) was less than 100 nM.

Take `CC(Nc1ccc2c(c1)Sc1cccc(-c3cc(N4CCOCC4)cc(=O)[nH]3)c1S2)c1cc(CF)ncn1` (stereo not drawn) [Example 1-12-91, 6-(7-((1-(6-(Fluoromethyl)pyrimidin-4-yl)ethyl)amino)thianthren-1-yl)-4-morpholino pyridin-2(1H)-one]: the IC50 on ATM is less than 100 nM. In addition, the SER2 (concentration at which the radiation sensitivity-enhancement ratio reaches 2) in experiment [1] (Homo sapiens, NCI-H460, 120 h) was in the range of 100 to 500 nM.

The record behind these values is patent US9586951B2 (FUJIFILM Corporation, priority 2013, dated 2017).
